Measurements reported in patent publication US20200246297A1, “LIQUID PHARMACEUTICAL FORMULATIONS OF TETRAIODOTHYRONINE” (priority 2015, published 2020).
Like-named read-outs stand apart in the source and are kept apart here.

How the values were obtained:
[1] = Protective effect of PEG: residual T4 assay by HPLC after 10 h stirring under nitrogen or oxygen; type: physicochemical; conditions: 600 rpm, 35° C.
Description: 5 mL of each solution is left under stirring for 10 h at 600 rpm and 35° C. in a nitrogen atmosphere, and 5 mL is left under the same conditions but in an oxygen atmosphere.

[2] = cited from earlier work
[3] = Scanning electron microscopy (SEM) of the filter membrane surface; type: physicochemical; conditions: T4 powder in water, comparative example
Description: These findings indicate that despite the 1:100 dilution process undergone by the original 150 μg/mL mixture, the formation of microaggregates remains stable, even after 8 h, and removes a considerable amount of the active ingredient from the pharmacological action.

[4] = Saturation of T4 solutions in PEG; type: physicochemical; conditions: T4 solvated in PEG
Source text: Due to their structure, said nanoaggregates are easily absorbed at gastrointestinal level, and are therefore completely and certainly bioavailable.

[5] = Filtration through membranes with cut-off ≤100 KDa: T4 in the permeate; type: physicochemical
[6] = Quantity of T4 microaggregates formed in water: HPLC T4 concentration before and after 0.2 μm microfiltration; type: physicochemical
Description: […] 50 mL of each sample taken is microfiltered through a Millipore GSWP02500 membrane with a porosity of 0.2 μm.
(§1) 50 mL of each sample taken is microfiltered through a Millipore GSWP02500 membrane with a porosity of […].
as §1
50 mL of each sample taken is microfiltered through a Millipore GSWP02500 membrane with a porosity of 0.2 μm.

[7] = cited from earlier work; remark: listed apart in the source
[8] = T4 150 μg/mL in 50% w/w aqueous PEG 400, 2000, 4000 or 8000 (all types), diluted 100 times in water pH 1.5, T0
[9] = T4 150 μg/mL in 50% w/w aqueous PEG 400, 2000, 4000 or 8000 (all types), diluted 100 times in water pH 6.5, T0
[10] = T4 150 μg/mL in PEG 200, 300, 400 or 600 (all types), diluted 100 times in water pH 6.5, T0

residual T4 assay value ([1]; T4 150 μg/mL in glycerol or ethanol, oxygen atmosphere): 30 % of the original assay value
average length on the longer axis of elongated crystalline structures on the filter [3]: exceeding 3.03±1.40 μm
concentration of T4 solution in PEG usable without the system becoming saturated [4]: up to 0.1 g/mL
T4 concentration after microfiltration ([6]; T4 150 μg/mL in 30% w/w aqueous PEG 400, 2000, 4000 or 8000 (all types), diluted 100 times in water pH 6.5, T0): 75 % of the value before microfiltration
T4 concentration after microfiltration [6, 8]: 100 % of the theoretical value
T4 concentration before microfiltration [6, 8]: 100 % of the theoretical value
T4 concentration after microfiltration [6, 9]: 100 % of the theoretical value
T4 concentration before microfiltration [6, 9]: 100 % of the theoretical value
T4 concentration after microfiltration [6, 10]: 100 % of the theoretical value
T4 concentration before microfiltration [6, 10]: 100 % of the theoretical value
T4 concentration after microfiltration compared with before ([6]; T4 150 μg/mL in PEG 8000/glycerol or PEG/ethanol 50/50 w/w (both systems), diluted 100 times in water pH 6.5, T0): identical to that before microfiltration
behaviour at later times (microfiltration) ([6]; T4 in 30% w/w aqueous PEG, diluted 100 times in water pH 6.5, T1h, T4h and T8h): behaviour similar to that at T0
T4 concentration in the solution before microfiltration ([6]; T4 powder 150 μg/mL in water pH 6.5, diluted 1:100 in water pH 6.5, T0 (30 sec)): 97.3 % of the theoretical value
T4 concentration after microfiltration ([6]; T4 powder 150 μg/mL in water pH 6.5, diluted 1:100 in water pH 6.5, T0 (30 sec), 0.2 μm filter): 18.5 % of the theoretical value
T4 concentration in the solution before microfiltration ([6]; T4 powder in water pH 6.5, diluted 1:100, T1h): 97.9%
T4 concentration after microfiltration ([6]; T4 powder in water pH 6.5, diluted 1:100, T1h, 0.2 μm filter): 27.1%
T4 concentration in the solution before microfiltration ([6]; T4 powder in water pH 6.5, diluted 1:100, T4h): 98.2%
T4 concentration after microfiltration ([6]; T4 powder in water pH 6.5, diluted 1:100, T4h, 0.2 μm filter): 27.5%
T4 concentration in the solution before microfiltration ([6]; T4 powder in water pH 6.5, diluted 1:100, T8h): 97.5%
T4 concentration after microfiltration ([6]; T4 powder in water pH 6.5, diluted 1:100, T8h, 0.2 μm filter): 23.7%
Substance: (2S)-2-amino-3-[4-(4-hydroxy-3,5-diiodo-oxyphenyloxy)-3,5-diiodophenyl]propanoic acid [T4]
T4 assay value of the solutions ([1]; T4 150 μg/mL in ethanol, glycerol, PEG 200, 300, 400 or 600 (all cases), nitrogen atmosphere): remains the same as the theoretical value
intrinsic dissolution rate (IDR) ([2]; entire physiological pH range): about 0.0002 mg/min/cm^2
Biopharmaceutics Classification System class ([2]; high solubility and intestinal permeability): Class I
T4 in the permeate of ≤100 KDa membrane ([5]; T4 in 50% PEG in water, diluted 100 times in water pH 6.5): quantitative absence of T4 in the permeate
T4 in the permeate of ≤100 KDa membrane ([5]; T4 in 50% w/w aqueous PEG, diluted 100 times in water pH 1.5): quantitative absence of T4 in the permeate
T4 in the permeate of ≤100 KDa membrane ([5]; T4 in PEG 200, 300, 400 or 600, diluted 100 times in water pH 6.5): quantitative absence of T4 in the permeate
T4 in the permeate of ≤100 KDa membrane ([5]; T4 in PEG 8000/glycerol or PEG/ethanol 50/50 w/w, diluted 100 times in water pH 6.5): quantitative absence of T4 in the permeate
T4 in the permeate of ≤100 KDa membrane ([5]; T4 in glycerin, ethanol or glycerin/ethanol 80/20 w/w, diluted 100 times in water pH 6.5): quantitative absence of T4 in the permeate
half-life of the medicament ([7]; euthyroidism): about 7 days
half-life of the medicament ([7]; hypothyroidism and pregnancy): 220 to 240 h
share absorbed in the duodenum ([7]; oral, small intestine): 21%
share absorbed in the ileum ([7]; oral, small intestine): 34%
share absorbed in the jejunum ([7]; oral, small intestine): 45%
time absorption takes ([7]; oral): about three
